Measured values published in patent US20250312296A1, “PETROLATUM-BASED PHMB COMPOSITIONS AND METHODS FOR THE TREATMENT OF INFLAMMATORY SKIN DISEASE” (GLOBAL HEALTH SOLUTIONS, INC., priority 2020, published 2025).
Values joined by “and” are separate entries in the source; they are usually repeats but may differ in a detail not shown here. Equal entries are not always repeated.

Tested on: Rabbit Skin
Assay: Rabbit skin irritation
Procedure: Within 24 hours to 4 hours before test application, the backs of female albino New Zealand White rabbits were clipped free of hair, exposing 2 test and 2 control areas on each side of the spine with a size of approximately 15 cm×15 cm. The two test sites are located on the left cranial section and the right caudal section of the dorsal region. The two control sites are located on the left caudal and right cranial section of the dorsal region. FIG. 4 depicts the arrangement of test and control sites. The exposed skin is wiped with alcohol and dried. Rabbits of acceptable skin quality were selected and used for testing.
A 25×25 mm gauze patch saturated with 0.5 mL of 0.9% NaCl is used for the control and applied to the clipped control sites. The patches are secured using hypoallergenic, waterproof, surgical tape over the test and control sites. The animal's trunk is securely wrapped so as to maintain the position of the patches. Patches are left applied for a minimum of four hours.
After patch removal, the test and control sites were then scored for erythema and edema at 1, 24, 48 and 72 hours after patch removal. Only the 24, 48, and 72 hour observations were scored and used for calculations. If no response was expected, testing was conducted using three animals per test article. If irritation was anticipated, one animal was tested initially. If the first animal received a score of 2 or less for either erythema or edema, 2 additional rabbits were used to conclude the test.
This total was divided by the total number of observations. The same was done for the control sites. […] These scores for each animal were added and divided by the total number of animals to give the Primary Irritation Index. […] For any response, the Maximum Irritation Response, the time of onset of the response and the time of maximum response was recorded.
To positively validate the test, 10% sodium dodecyl sulfate (SDS), which is a known dermal irritant, in petroleum jelly was applied to a 2.5 cm×2.5 cm gauze patch. As a negative control, 0.5 mL of 0.9% NaCl was applied to a 2.5 cm×2.5 cm gauze patch. A Primary Irritation Index in the moderate to severe range is considered a positive result. The test system and methods utilized were the same as described above.

[1] = per rabbit, scores of 24, 48 and 72 hour observations added, patch at least four hours, sulfate

SMILES: CCCCCCCCCCCCOS(=O)(=O)[O-].[Na+] [10% SDS, sodium dodecyl sulfate]
- Primary Irritation Index (3 animals, 0-0.4 Negligible, 0.5-1.9 Slight, 2-4.9 Moderate, 5-8 Severe): Total Average (19.3) = 6.4 Primary Irritation Index
- ED (edema) score [1]: 19 and 21 and 14
- ER (erythema) score [1]: 21 and 23 and 18
- ER + ED = Total (per rabbit, scores of 24, 48 and 72 hour observations added, sulfate): 40 and 44 and 32
